Experiments:
human thrombin = assay: Inhibition of thrombin amidase activity, chromogenic substrate (Kass); format: biochemical; conditions: average of 3 assays; read-out: Kass, inhibitor of thrombin (converted)
Method: For example, thrombin hydrolyzes N-benzoyl-L-phenylalanyl-L-valyl-L-arginyl-p-nitroanilide, N-benzoyl-L-Phe-L-Val-L-Arg-p-nitroanilide.
The assay is carried out by mixing 50 μL buffer (0.03M Tris, 0.15M NaCl, pH 7.4) with 25 μL of human thrombin solution (purified human thrombin, Enzyme Research Laboratories, South Bend, Indiana, at 8 NIH units/mL) and 25 μL of test compound in a solvent (50% aqueous methanol (v:v)). Then 150 μL of an aqueous solution of the chromogenic substate (at 0.25 mg/mL) are added and the rates of hydrolysis of the substrate are measured by monitoring the reactions at 405 nm for the release of p-nitroaniline. Standard curves are constructed by plotting free thrombin concentration against hydrolysis rate. The hydrolysis rates observed with test compounds are then converted to "free thrombin" values in the respective assays by use of the standard curves. The bound thrombin (bound to test compound) is calculated by subtracting the amount of free thrombin observed in each assay from the known initial amount of thrombin used in the assay. The amount of free inhibitor in each assay is calculated by subtracting the number of moles of bound thrombin from the number of moles of added inhibitor (test compound). […]
Kass is calculated for a range of concentrations of test compounds and the mean value reported in units of liter per mole.

factor Xa = assay: Inhibition of factor Xa amidase activity, chromogenic substrate (Kass); format: biochemical, human; conditions: average of 3 assays; read-out: Kass, inhibitor of factor Xa (converted)
rabbit AV shunt model = assay: Arterio-venous (AV) shunt model in the rabbit; format: in vivo; conditions: i.v. infusion
Source text: Arterio-Venous (AV) Shunt Model in the Rabbit
Efficacy and potency of a compound are studied in a model of thrombosis in the anesthetized rabbit in which blood is shunted from the carotid artery through tubing to the left jugular vein. The shunt houses a thread upon which thrombotic material is deposited and is quantified in the presence and absence of a test compound. Specifically, the left jugular vein and right carotid artery are cannulated (PE 200 tubing, 22 cm). The tip of the arterial tubing is advanced approximately 1 cm and the tip of the venous tubing is advanced approximately 1 cm. The arterial and venous shunt segments are friction fitted into a center section of larger tubing (PE 260, 6 cm) with 4 strands of cotton thread (5.5 cm each), knotted together with a single knot at the end, in the lumen. Blood is circulated through the shunt for 15 min. The arterial and venous segments are clamped, the center section is detached, held vertically and the thread is carefully removed and weighed. The weight of a wet thread (38 mg, average of 10-4-stranded identical lengths) is subtracted from the total weight of the thread and thrombus. A drug is infused through a second catheter in the right jugular vein (2 cm inside vessel) starting 15 min before and throughout the 15 min period of blood circulation through the shunt. […]

Kd (human thrombin): 2.84 nM
Kd (factor Xa): 3.32 nM
SMILES: N=C(N)NCCCC(NC(=O)[C@@H]1CCCN1C(=O)[C@@H]1NCC[C@H]2CCCC[C@H]21)C(=O)c1nc2ccccc2s1 (mixture of isomers) [DL-Arg-Ia, (1R,4aR,8aR)-Perhydroisoquinolin-1-ylcarbonyl-N-[(1RS)-4-[(aminoiminomethyl)amino]-1-(benzothiazol-2-ylcarbonyl)-butyl]-L-prolinamide. 1.5 H2 SO4]
ED50% (infusion dose to reduce thrombus weight by 50%) (rabbit AV shunt model): 0.008 mg/kg/h

From patent US6214841A, “Antithrombotic compound” (Eli Lilly and Company, priority 1999, dated 2001)
